One may read the melting point as the temperature of the solid-liquid transition. `COc1ccc(-c2ccc(C(=O)Nc3ccc4nc(CN5C(C)(C)CCCC5(C)C)ccc4c3)cc2)cc1` registered a melting point of 210 to 211 °C.
To `CCC(Oc1ccccc1C(C)=O)C(=O)OC1CC(O)C=C2C=CC(C)C(CCC3CC(O)CC(=O)O3)C21` (mixture of isomers) belongs 148 to 150 °C; to `CCOC(=O)C1=C(C)NC(CSCOC(C)=O)=C(C(=O)OCC)C1c1cccc([N+](=O)[O-])c1` (centres undefined), 118 to 121 °C; to `N#Cc1ccc(C=CC(=O)c2ccc(O)c(CC(=O)O)c2)cc1`, 249 °C.
The result for `CCCCC(C)(OC)C(O)C=CC1C(O)CC(=O)C1CCCCCCC(=O)OC` (centres undefined) reads 44 to 45 °C; that for `CCCCCS(=O)(=O)NC(=O)/C=C/c1cc(OCC2CC2)nn1Cc1ccc(C(F)(F)F)cc1Cl`, 148 to 151 °C; that for `O=C(O)c1cn(C2CC2)c2cc(N3CCC(c4ccncc4)C3)c(F)cc2c1=O` (centres undefined), 260 to 261 °C.
The result for `O=c1ccc(Br)cn1CC1(O)CCN(Cc2ccccc2F)CC1` reads 184 to 186 °C.
For `CN(C)Cc1cccc(Oc2ccc3c(c2)S(=O)(=O)NC2CCCN32)c1` (centres undefined), the melting point came out at 122 °C.
To `CC(C)(C)NS(=O)(=O)c1csc2ccccc12` belongs 146 to 148 °C.
`COc1cc(COc2cc(NC(C)=O)c(Cl)cc2C(=O)CCCCCl)cc(OC)c1`: the melting point lay in the range of 135 to 137 °C.
The result for `CC(C)(C)OC(=O)NCc1ccccc1-c1ccc(CO)cc1` reads 89 to 93 °C.
On to `O=C1CNCC2c3ccccc3CCN12` (centres undefined), for which the melting point was in the range of 119 to 120 °C.
The result for `COc1ccc(-c2[nH]nc3c2C(=O)c2c(NC(=O)CN4CCC(N(C)C)CC4)cccc2-3)cc1` reads above 300 °C; that for `CCCOc1ccccc1-c1nc(OCC)cc(=O)[nH]1`, 95.5 to 97 °C.
Consider `O=C(NC(=O)C(c1ccccc1)c1ccccc1)OCc1ccccc1`, for which the melting point was in the range of 100 to 101 °C.
The result for `CCc1nc(SC)nn1-c1ccc(N)cc1` reads 132 °C; that for `CCCOc1cc2ccccc2c2c(=O)c(-c3ccoc3)c[nH]c12`, 252 to 254 °C.
`COc1ccccc1-c1csc(Nc2ccc(C)cn2)n1` yielded a melting point of 228 to 230 °C.
Compound `CN(C)Cc1ccc(COCC(N)=O)s1` displayed a melting point of 86.5 to 95 °C.
As to `N#Cc1cccc(-c2ccc3c(c2)C2(CCCC2)C(=O)N3)c1`, the melting point is 217 to 219 °C.
Consider `CCc1cc(NCc2ccc(-c3ccccc3C#N)cc2)n2ncc(Cl)c2n1`, for which the melting point lay in the range of 152 to 154 °C.
Turning to `CCCc1c2occ(C(=O)O)cc-2c(=O)c2cc(C(=O)O)sc12`, the melting point was above 250 °C.
The result for `Cc1cccc(-c2nc3cccnn3c2-c2ccnc(N(C(=O)C3CC3)C(=O)C3CC3)c2)c1` reads 173 to 175 °C; that for `CN(C)C(=O)c1ccc([N+](=O)[O-])cc1Cl`, 116 to 117 °C; that for `CC(=O)c1cc2nc(S(=O)Cc3nccc4c3OCO4)[nH]c2cc1C` (centres undefined), 178 to 180 °C.
For `Cc1cc(-c2cccc(NC(=O)C(C)(C)C)c2)cc2c1[C@H]1CCC(=O)N(C)[C@@H]1CC2`, the melting point was 95 to 98 °C.
The result for `COc1c(C(C)(C)C)cc(SC)cc1C(C)(C)C` reads 50 to 52 °C.
In turn, `CCOC(=O)Cc1nnc(-c2ccc(OC)cc2)n1-c1ccccc1` gave a melting point of 130 to 131 °C.
To `CCOC(=O)c1nc2cnn(CC)c2nc1C` belongs 64 to 65 °C.
To `CC(=O)Nc1ccc(C(=O)c2cc(-c3ccc(Cl)cc3)c(N3CCOCC3)s2)cc1` belongs 125 to 127 °C.
The result for `COS(=O)(=O)Cc1cccc(-c2nc(=O)c3ccccc3s2)n1` reads 102 °C.
The compound `COc1ccc2nc(C3(OC)C=CC(=NS(=O)(=O)c4ccc(C)cc4)C=C3)sc2c1` (centres undefined) displayed a melting point of 166 to 168 °C.
For the compound `Clc1ncnc2c1c(Nc1ccccc1)nn2Cc1ccccc1`, the melting point turned out to be 135 °C.
Turning to `N#CCNC(=O)C1CC1`, the melting point fell in the range of 91 to 92 °C.
The result for `CN1CCC(OC2c3ccccc3CCn3cc(-c4ccc(N)cc4)nc32)CC1` (centres undefined) reads 197 °C; that for `O=Cc1ccc(-c2cnc3cnc(-c4ccc(O)cc4)nc3c2)cc1`, above 268 °C.
Regarding `Cc1cc(C)c(CC(=O)N(C)CC(=O)O)c(C)c1`, the melting point amounted to 140 °C.
In turn, `S=c1[nH]c(Nc2ccc(Cl)cc2)nc2ccccc12` had a melting point of 264 to 268 °C.
Regarding `COc1cc(C2CCNCC2)ccc1Nc1ncc2ccc(-c3cccc(S(=O)(=O)NC(C)(C)C)c3)n2n1`, the melting point was in the range of 201 to 202 °C.
To `CCOC(=O)CN(CCOc1cc2cc3c(Nc4cc(OC)c(Cl)cc4C)c(C#N)cnc3cc2cc1OCC)CC(=O)OCC` belongs 70 to 71 °C; to `CC(C)Oc1cc(-n2c(=O)[nH]c(C(F)(F)C(F)(F)F)c(F)c2=O)c(F)cc1Cl`, 160 to 162 °C; to `C=CCN1C(=O)C(C)(CN2CCN(c3cccc4c3OCCO4)CC2)N=C1c1cccnc1` (centres undefined), 102 to 105 °C.
The result for `CCCNC(=O)C1(CCCc2ccccc2)c2ccccc2Sc2ccccc21` reads 130 to 131 °C; that for `O=c1nc(-c2ccccn2)sc2cc(Br)ccc12`, 231 to 232 °C; that for `COc1ccc(-c2ccc3cc(C(=O)O)ccc3c2)cc1C12CC3CC(CC(C3)C1)C2`, 321 °C.
The result for `COCCC1CCCCc2c1oc(=O)c(C(c1ccccc1)C1CC1)c2O` (centres undefined) reads 58 to 60 °C.
Consider `COC(=O)c1cnn(C)c1C(=O)Nc1ccn2nc(-c3cccnc3)nc2c1`, for which the melting point fell in the range of 228 to 231 °C.
To `CSc1c2ccccc2c(C=O)c2ccccc12` belongs 98.5 to 99 °C; to `CCCCCCCCCCCCCC(=O)NC1CC(C)(C)N(CC#N)C(C)(C)C1`, 106 °C.
Compound `COc1cc(-c2nc(N)sc2CCC2CCC(C)(C)CC2)c(OC)cc1C` yielded a melting point of 136 to 138 °C.
Consider `CN(C)C(=C(C#N)C#N)N(C)N=Cc1ccccc1`, for which the melting point was in the range of 127 to 128 °C.
To `CCNC(=O)Nc1c(C(O)(C(F)(F)F)C(F)(F)F)ccc2c1CCC2` belongs 142 to 143 °C.
To `Nc1cc(N2CCN(C34CC5CC(CC(C5)C3)C4)CC2)nc(N)n1` belongs 265 to 268 °C; to `N#Cc1cc2c3c(cccc3c1N1CCCC1)C(=O)N(O)C2=O`, 247 to 248 °C.
To `COC1C(O)CCC(O)(CSc2ccccc2)C1C1(C)OC1CC=C(C)C` (centres undefined) belongs 94 to 96 °C; to `CN(C(=O)c1ccccc1)C(=N[N+](=O)[O-])NCc1cnc(Cl)s1`, 170 to 172 °C.
`COCC1CN(c2ccc(C3CCCCC3)cc2)C(=O)O1` (racemic) gave a melting point of 86 to 88 °C.
Compound `CC(C)N1OCC(=Cc2cc(C(C)(C)C)c(O)c(C(C)(C)C)c2)C1=O` registered a melting point of 178 to 180 °C.
For the compound `CCN1CCCC(NC(=O)N2CCN(c3ccccc3)CC2)C1` (centres undefined), the melting point was in the range of 100 to 103 °C.
The result for `COc1cc(C)nc(NC(=O)NS(=O)(=O)c2csc3ccccc23)n1` reads 180 to 181 °C; that for `Cc1ccc(CS(=O)c2c(O)cc(C)oc2=O)cc1` (centres undefined), 156 to 158 °C.
The result for `CC1CC=CCN1Cc1ccc(O)cc1` (centres undefined) reads 109 to 112 °C; that for `Nc1cccc(NC(=S)Nc2ccc(Cl)cc2)c1`, 132 to 134 °C; that for `CCc1nc2c(cnn2CC)c(NC2CCOCC2)c1CNC(=O)c1cccc(C(=O)NCc2ccc(C)c(-c3cccc(CN4CCCN(C)CC4)c3)c2)c1`, 107 to 109 °C.
In turn, `O=S(=O)(c1cccc(F)c1)N1CCCC1c1ccc(F)cc1` (racemic) returned a melting point of 101 °C.
Regarding `N#Cc1cccc(C(=O)Nc2cccc(C(=O)NCCC(=O)OCc3ccccc3)c2)c1`, the melting point fell in the range of 128 to 131 °C.
Turning to `COc1cc2ncc(C#N)c(Nc3ccccc3SC)c2cc1OC`, the melting point was 245 to 247 °C.
For the compound `CC(C)(C)c1cc(SCCSCCC(=O)O)cc(C(C)(C)C)c1O`, the melting point turned out to be 57.5 °C.
The result for `NC(=O)c1ccc(OCCNCC(O)COc2nccnc2Cl)cc1` (centres undefined) reads 134 to 135 °C; that for `COc1ccc(CN(CC(=O)NO)S(=O)(=O)c2ccc(OC)cc2)cc1`, 134 to 136 °C.
The compound `CC(=O)Oc1c(Cl)cc(Cl)cc1C1(OC(C)=O)C(=O)c2ccccc2C1=O` came in with a melting point of 178 to 180 °C.
To `Fc1ccc(-c2cnn(CCC#Cc3ccccn3)n2)cc1` belongs 83.5 to 84.5 °C.
Regarding `CC(C)(C)c1ccc(/C=N/OCCOc2ccc(C(=O)O)c(OC(=O)c3ccccc3)c2)cc1`, the melting point fell in the range of 129 to 131 °C.
`FC(F)(F)c1n[nH]c(C(F)(F)F)n1` returned a melting point of 74 to 75 °C.
`COc1cccc(CNC(=O)c2ncc3ccccc3n2)c1` gave a melting point of 91 to 93 °C.
To `c1ccc(COc2ccc(CCCn3ccnc3)cc2)cc1` belongs 80 to 81 °C; to `CC(C)(C)OC(=O)CCN1CCC(O)(c2ccc(O)cc2CO)CC1`, 68 to 70 °C.
Take `CN1C(NCCCO)=NC(c2ccccc2)c2cc(Cl)ccc21` (centres undefined): the melting point lay in the range of 165 to 166 °C.
To `CCOC(=O)C1=C(C)NC(N=CN(C)C)=C(C(=O)OCC)C1c1ccccc1` (centres undefined) belongs 131 °C; to `O=C(O)c1ccc(-c2noc(-c3ccc(C(F)(F)F)cc3)n2)cc1`, 286 to 287 °C; to `Cc1ncc2cccc(CCCCCC(=O)O)n12`, 170 to 173 °C.
The result for `OC1CCc2cc(Cl)c(Cl)cc2C1` (centres undefined) reads 103 to 105 °C; that for `COC(=O)c1ccc2c(c1)C(CNC(=O)OC(C)(C)C)CCC2` (centres undefined), 72 to 80 °C.
Take `Cc1ccc(SCC2=NOCN2)cc1`: the melting point came to 85 °C.
For `CCc1c(N(C(C)=O)c2cc(C)cc(C)c2)[nH]c(=O)[nH]c1=O`, the melting point fell in the range of 238 to 239 °C.
The result for `Nc1ccc(Nc2c(NCc3ccccc3)cc(C(=O)O)cc2S(N)(=O)=O)cc1` reads 244 °C; that for `N#Cc1cc2c(cc1Br)nc1n2CCC1`, 224 °C; that for `CCCCC1OC(=O)c2cc([N+](=O)[O-])ccc21` (centres undefined), 53 to 55 °C.

The values are drawn from a melting point compilation (Tetko et al.; mined from patent text by program, amines drawn as free bases though some values may be those of a salt).
